Laboratory results: patent US8785488B2 (Exelixis Patent Company LLC, priority 2009, dated 2014)

Target: T1, human TGR5 (h-TGR5) (Homo sapiens, UniProt Q8TDU6)
T1 construct: expressed in transfected cells
T1 sequence (Q8TDU6 1-330): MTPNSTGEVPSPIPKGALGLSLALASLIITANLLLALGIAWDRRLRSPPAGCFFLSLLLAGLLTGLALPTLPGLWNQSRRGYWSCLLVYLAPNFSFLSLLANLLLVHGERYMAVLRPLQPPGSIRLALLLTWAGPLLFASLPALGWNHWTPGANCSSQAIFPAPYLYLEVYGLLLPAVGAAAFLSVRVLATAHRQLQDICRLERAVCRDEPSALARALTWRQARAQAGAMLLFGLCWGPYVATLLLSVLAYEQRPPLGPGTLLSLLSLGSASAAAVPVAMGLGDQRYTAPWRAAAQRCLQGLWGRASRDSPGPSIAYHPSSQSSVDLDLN
Assay: TGR5/CRE-Luciferiase Assay (HEK 293 hTGR5/CRE-Luc cells)
Format: cell-based
Details: HEK 293 hTGR5/CRE-Luc cells, 6 hours incubation, luciferase activity; Table 2; read-out: h-TGR5CRE-Luc EC50 (CRE-Luc)
Method: Compounds were serially diluted in DMEM containing 5% DMSO and 5 μL of compound or media alone was transferred to each well and plates were incubated for 6 hours. Following incubation, 30 μL of lysis/luciferase buffer was added to each well. The luciferase activity was then measured on the EnVision™ plate reader and the dose response data was analyzed using ActivityBase.
In the following tables, EC50 values determined according to the TGR5 cAMP Assay described herein (cAMP); EC50 values determined according to the TGR5/CRE-Luciferiase Assay described herein (CRE-Luc). […] The following compounds in Tables 1 and 2 were made by using procedures described in the above Schemes and Examples, and, where applicable, by making any necessary substitutions of known materials that one skilled in the art would ordinarily understand how to do.

EC50 | Compound
1 to 10 µM | CC(C)(c1ccc(Cl)cc1)c1nnc(SCc2ccc(F)cc2Cl)n1-c1ccc(F)cc1 [Example 6]
1 to 10 µM | Fc1ccc(CSc2nnc(Cc3ccc(Cl)c(Cl)c3)n2-c2ccc(F)cc2)cc1 [Example 17]
1 to 10 µM | CC(C)(c1ccc2cccnc2c1)c1nnc(SCc2c(F)cc(C(=O)O)cc2F)n1-c1ccc(F)cc1 [Example 50]

Same assay, conditions: h-TGR5 CRE-Luc EC50, Table 1; read-out: CRE-Luc (EC50)

Compound | EC50
CC(C)(c1ccc(Cl)c(Cl)c1)c1cnc(SCc2c(F)cccc2Cl)n1C1CCCC1 [2-{[(2-chloro-6-fluorophenyl)methyl]thio}-1-cyclopentyl-5-[1-(3,4-dichlorophenyl)-1-methylethyl]-1H-imidazole] | 1 to 10 µM
CC(C)(c1ccc(S(C)(=O)=O)cc1)c1cnc(SCc2c(F)cc(C(=O)O)cc2F)n1-c1ccc(F)c(F)c1 [4-({[1-(3,4-difluorophenyl)-5-{1-methyl-1-[4-(methylsulfonyl)phenyl]ethyl}-1H-imidazol-2-yl]thio}methyl)-3,5-difluorobenzoic acid] | 1 to 10 µM
CC(C)(c1ccc(Cl)c(Cl)c1)c1cnc(C(=O)CCc2ccc(Cl)cc2Cl)n1-c1ccc(F)cc1 [3-(2,4-dichlorophenyl)-1-{5-[1-(3,4-dichlorophenyl)-1-methylethyl]-1-(4-fluorophenyl)-1H-imidazol-2-yl}propan-1-one] | 1 to 10 µM
CC(C)(c1ccc(S(C)(=O)=O)cc1)c1cnc(SCc2ccc(S(=O)(=O)NC(=O)NN3CCCC3)cc2Cl)n1-c1ccc(F)cn1 [3-chloro-4-({[1-(5-fluoropyridin-2-yl)-5-{1-methyl-1-[4-(methylsulfonyl)phenyl]ethyl}-1H-imidazol-2-yl]thio}methyl)-N-[(pyrrolidin-1-ylamino)carbonyl]benzenesulfonamide] | 1 to 10 µM
CC(C)(O)COc1cc(CSc2ncc(C(C)(C)c3ccc(Cl)c(Cl)c3)n2-c2ccc(F)cc2)ccc1F [1-({5-[({5-[1-(3,4-dichlorophenyl)-1-methylethyl]-1-(4-fluorophenyl)-1H-imidazol-2-yl}thio)methyl]-2-fluorophenyl}oxy)-2-methylpropan-2-ol] | 0.1 to 1 µM
CC(C)(c1ccc(Cl)c(Cl)c1)c1cnc(SCc2ccc(F)cc2Cl)n1-c1ccc(F)cc1 [2-{[(2-chloro-4-fluorophenyl)methyl]thio}-5-[1-(3,4-dichlorophenyl)-1-methylethyl]-1-(4-fluorophenyl)-1H-imidazole] | 0.1 to 1 µM
CC(C)(c1ccc(Cl)c(Cl)c1)c1cnc(COc2ccc(-c3nn[nH]n3)cc2Cl)n1-c1ccc(F)cc1 [5-{3-chloro-4-[({5-[1-(3,4-dichlorophenyl)-1-methylethyl]-1-(4-fluorophenyl)-1H-imidazol-2-yl}methyl)oxy]phenyl}-2H-tetrazole] | 1 to 10 µM
COc1cc(F)ccc1-n1c(C(C)(C)c2ccc(Cl)c(Cl)c2)cnc1SCc1ccc(F)cc1Cl [2-{[(2-chloro-4-fluorophenyl)methyl]thio}-5-[1-(3,4-dichlorophenyl)-1-methylethyl]-1-[4-fluoro-2-(methyloxy)phenyl]-1H-imidazole] | 0.1 to 1 µM
CC(C)(c1ccc(Cl)c(Cl)c1)c1cnc(SCc2ccc(C(=O)O)c(F)c2)n1-c1ccc(F)cc1 [4-[({5-[1-(3,4-dichlorophenyl)-1-methylethyl]-1-(4-fluorophenyl)-1H-imidazol-2-yl}thio)methyl]-2-fluorobenzoic acid] | 0.1 to 1 µM
CC1CCc2cc(F)ccc2N1S(=O)(=O)c1ncc(C(C)(C)c2ccc(Cl)c(Cl)c2)n1-c1ccc(F)cc1 (centres unmarked) [1-({5-[1-(3,4-dichlorophenyl)-1-methylethyl]-1-(4-fluorophenyl)-1H-imidazol-2-yl}sulfonyl)-6-fluoro-2-methyl-1,2,3,4-tetrahydroquinoline] | 1 to 10 µM
COCCNC(=O)c1ccc(CSc2ncc(C(C)(C)c3ccc(Cl)c(Cl)c3)n2-c2ccc(F)cc2)c(F)c1 [4-[({5-[1-(3,4-dichlorophenyl)-1-methylethyl]-1-(4-fluorophenyl)-1H-imidazol-2-yl}thio)methyl]-3-fluoro-N-[2-(methyloxy)ethyl]benzamide] | 0.1 to 1 µM
CC(C)(c1ccc(Cl)c(Cl)c1)c1cnc(S(=O)(=O)N[C@H](CO)c2ccccc2)n1-c1ccc(F)cc1 [5-[1-(3,4-dichlorophenyl)-1-methylethyl]-1-(4-fluorophenyl)-N-[(1S)-2-hydroxy-1-phenylethyl]-1H-imidazole-2-sulfonamide] | 1 to 10 µM
COc1cc(C(C)(C)c2cnc(SCC3CCN(CC(=O)O)CC3)n2-c2ccc(F)cc2)ccc1Cl [[4-({[5-{1-[4-chloro-3-(methyloxy)phenyl]-1-methylethyl}-1-(4-fluorophenyl)-1H-imidazol-2-yl]thio}methyl)piperidin-1-yl]acetic acid] | 1 to 10 µM
CCN(CC)CCOc1ccc(CSc2ncc(C(C)(C)c3ccc(Cl)c(Cl)c3)n2-c2ccc(F)cc2)cc1S(N)(=O)=O [5-[({5-[1-(3,4-dichlorophenyl)-1-methylethyl]-1-(4-fluorophenyl)-1H-imidazol-2-yl}thio)methyl]-2-{[2-(diethylamino)ethyl]oxy}benzenesulfonamide] | 0.1 to 1 µM
CC(C)(c1ccc(Cl)c(Cl)c1)c1cnc(SCc2ccc(-c3nnn[nH]3)c(F)c2)n1-c1ccc(F)cc1 [5-{4-[({5-[1-(3,4-dichlorophenyl)-1-methylethyl]-1-(4-fluorophenyl)-1H-imidazol-2-yl}thio)methyl]-2-fluorophenyl}-1H-tetrazole] | 0.1 to 1 µM
CC(C)(c1ccc(Cl)c(S(N)(=O)=O)c1)c1cnc(SCc2ccc(Cl)c(-c3nnn[nH]3)c2)n1-c1ccc(F)cc1 [2-chloro-5-{1-[2-({[4-chloro-3-(1H-tetrazol-5-yl)phenyl]methyl}thio)-1-(4-fluorophenyl)-1H-imidazol-5-yl]-1-methylethyl}benzenesulfonamide] | 0.1 to 1 µM
CC(C)(c1ccc(Cl)c(Cl)c1)c1cnc(SCc2c(F)cc(C(=O)O)cc2F)n1-c1ccc(F)c(CO)c1 [4-[({5-[1-(3,4-dichlorophenyl)-1-methylethyl]-1-[4-fluoro-3-(hydroxymethyl)phenyl]-1H-imidazol-2-yl}thio)methyl]-3,5-difluorobenzoic acid] | 0.1 to 1 µM

Other lines, results leading:

EC50 | Compound
0.1 to 1 µM | CC(C)(c1ccc(Cl)c(Cl)c1)c1cnc(SCc2cc(S(N)(=O)=O)ccc2Cl)n1-c1ccc(F)cc1 [4-chloro-3-[({5-[1-(3,4-dichlorophenyl)-1-methylethyl]-1-(4-fluorophenyl)-1H-imidazol-2-yl}thio)methyl]benzenesulfonamide]
0.1 to 1 µM | CC(C)(c1ccc(C(F)(F)F)cc1)c1cnc(SCc2c(F)cccc2Cl)n1-c1ccc(F)cc1 [2-{[(2-chloro-6-fluorophenyl)methyl]thio}-1-(4-fluorophenyl)-5-{1-methyl-1-[4-(trifluoromethyl)phenyl]ethyl}-1H-imidazole]
0.1 to 1 µM | CC(C)(c1ccc(Cl)c(Cl)c1)c1cnc(SCc2ccc(C(N)=O)c(F)c2)n1-c1ccc(F)cc1 [4-[({5-[1-(3,4-dichlorophenyl)-1-methylethyl]-1-(4-fluorophenyl)-1H-imidazol-2-yl}thio)methyl]-2-fluorobenzamide]
0.1 to 1 µM | CC(C)(O)c1ccc(C(C)(C)c2cnc(SCc3ccc(F)cc3Cl)n2-c2ccc(F)cc2)cc1Cl [2-(2-chloro-4-{1-[2-{[(2-chloro-4-fluorophenyl)methyl]thio}-1-(4-fluorophenyl)-1H-imidazol-5-yl]-1-methylethyl}phenyl)propan-2-ol]
< 0.1 µM | CC(C)(c1ccc(Cl)c(Cl)c1)c1cnc(SCc2c(F)cccc2Cl)n1-c1ccc(F)c(Cl)c1 [1-(3-chloro-4-fluorophenyl)-2-{[(2-chloro-6-fluorophenyl)methyl]thio}-5-[1-(3,4-dichlorophenyl)-1-methylethyl]-1H-imidazole]
0.1 to 1 µM | CCOC(=O)c1cc(F)c(CSc2nc(C)c(C(C)(C)c3ccc(Cl)c(OC)c3)n2-c2ccc(F)cc2)c(Cl)c1 [ethyl 3-chloro-4-({[5-{1-[4-chloro-3-(methyloxy)phenyl]-1-methylethyl}-1-(4-fluorophenyl)-4-methyl-1H-imidazol-2-yl]thio}methyl)-5-fluorobenzoate]
0.1 to 1 µM | CC(C)(c1ccc(Cl)c(Cl)c1)c1cnc(SCc2ccc(C(=O)NCC(F)(F)F)cc2F)n1-c1ccc(F)cc1 [4-[({5-[1-(3,4-dichlorophenyl)-1-methylethyl]-1-(4-fluorophenyl)-1H-imidazol-2-yl}thio)methyl]-3-fluoro-N-(2,2,2-trifluoroethyl)benzamide]
0.1 to 1 µM | CC(C)(c1ccc2c(c1)OCO2)c1cnc(SCc2ccc(F)cc2Cl)n1-c1ccc(F)cc1 [5-[1-(1,3-benzodioxol-5-yl)-1-methylethyl]-2-{[(2-chloro-4-fluorophenyl)methyl]thio}-1-(4-fluorophenyl)-1H-imidazole]
< 0.1 µM | COc1c(Cl)cc(C(C)(C)c2cnc(SCc3ccc(F)c(S(N)(=O)=O)c3)n2-c2ccc(F)cc2)cc1Cl [5-({[5-{1-[3,5-dichloro-4-(methyloxy)phenyl]-1-methylethyl}-1-(4-fluorophenyl)-1H-imidazol-2-yl]thio}methyl)-2-fluorobenzenesulfonamide]
